Source: ChEMBL document CHEMBL3822370, “Identification and Development of 2,3-Dihydropyrrolo[1,2-a]quinazolin-5(1H)-one Inhibitors Targeting Bromodomains within the Switch/Sucrose Nonfermenting Complex” (J Med Chem, 2016)
The source made the active and inactive calls. The rule behind the calls is not given here.

Columns and labels:
[1] = biological target: T1, Protein polybromo-1 (Homo sapiens, UniProt Q86U86)
Description: Binding affinity to His6-tagged human recombinant PB1 bromodomain isoform 5 expressed in Escherichia coli BL21(DE3)-R3-pRARE2 cells assessed as change in melting temperature at 10 uM by SyproOrange dye based DSF thermal shift assay

[2] = biological target: T2, SWI/SNF-related matrix-associated actin-dependent regulator of chromatin subfamily A member 4 (Homo sapiens, UniProt P51532); experiment: Binding affinity to His6-tagged human recombinant SMARCA4 bromodomain expressed in Escherichia coli BL21(DE3)-R3-pRARE2 cells assessed as change in melting temperature at 10 uM by SyproOrange dye based DSF thermal shift assay
[3] = biological target: SWI/SNF-related matrix-associated actin-dependent regulator of chromatin subfamily A member 2 (Homo sapiens) (UniProt P51531); experiment: Binding affinity to His6-tagged human recombinant SMARCA2A bromodomain expressed in Escherichia coli BL21(DE3)-R3-pRARE2 cells assessed as change in melting temperature at 10 uM by SyproOrange dye based DSF thermal shift assay
[4] = biological target: SWI/SNF-related matrix-associated actin-dependent regulator of chromatin subfamily A member 2 (Homo sapiens) (UniProt P51531); experiment: Binding affinity to His6-tagged human recombinant SMARCA2B bromodomain expressed in Escherichia coli BL21(DE3)-R3-pRARE2 cells assessed as change in melting temperature at 10 uM by SyproOrange dye based DSF thermal shift assay
[5] = biological target: T1, Protein polybromo-1; remark: listed apart in the source
Description: Binding affinity to His6-tagged human recombinant PB1 bromodomain isoform 2 expressed in Escherichia coli BL21(DE3)-R3-pRARE2 cells assessed as change in melting temperature at 10 uM by SyproOrange dye based DSF thermal shift assay

[6] = biological target: T1, Protein polybromo-1; remark: listed apart in the source
Description: Binding affinity to His6-tagged human recombinant PB1 bromodomain isoform 3 expressed in Escherichia coli BL21(DE3)-R3-pRARE2 cells assessed as change in melting temperature at 10 uM by SyproOrange dye based DSF thermal shift assay

[7] = biological target: T1, Protein polybromo-1; remark: listed apart in the source
Description: Binding affinity to His6-tagged human recombinant PB1 bromodomain 4 expressed in Escherichia coli BL21(DE3)-R3-pRARE2 cells assessed as change in melting temperature at 10 uM by SyproOrange dye based DSF thermal shift assay

[8] = biological target: T1, Protein polybromo-1; experiment: Binding affinity to His6-tagged human recombinant PB1 bromodomain isoform 5 expressed in Escherichia coli BL21(DE3)-R3-pRARE2 cells by VP-ITC microcalorimetry
[9] = Solubility of the compound in DMSO; type: physicochemical
[10] = biological target: T2, SWI/SNF-related matrix-associated actin-dependent regulator of chromatin subfamily A member 4; experiment: Inhibition of His6-tagged human recombinant SMARCA4 bromodomain expressed in Escherichia coli BL21(DE3)-R3-pRARE2 cells after 30 mins using biotinylated ligand by Alpha screen displacement assay
[11] = biological target: Histone acetyltransferase KAT2B (Homo sapiens) (UniProt Q92831); experiment: Binding affinity to His6-tagged human recombinant PCAF bromodomain expressed in Escherichia coli BL21(DE3)-R3-pRARE2 cells assessed as change in melting temperature at 10 uM by SyproOrange dye based DSF thermal shift assay
[12] = biological target: Bromodomain-containing protein 4 (Homo sapiens) (UniProt O60885); experiment: Binding affinity to His6-tagged human recombinant BRD4 bromodomain 1 expressed in Escherichia coli BL21(DE3)-R3-pRARE2 cells assessed as change in melting temperature at 10 uM by SyproOrange dye based DSF thermal shift assay
[13] = biological target: CREB-binding protein (Homo sapiens) (UniProt Q92793); experiment: Binding affinity to His6-tagged human recombinant CREBBP bromodomain expressed in Escherichia coli BL21(DE3)-R3-pRARE2 cells assessed as change in melting temperature at 10 uM by SyproOrange dye based DSF thermal shift assay
[14] = biological target: T3, E3 ubiquitin-protein ligase TRIM33 (Homo sapiens) (UniProt Q9UPN9); experiment: Binding affinity to His6-tagged human recombinant TRIM33B bromodomain expressed in Escherichia coli BL21(DE3)-R3-pRARE2 cells assessed as change in melting temperature at 10 uM by SyproOrange dye based DSF thermal shift assay
T3 sequence (whole entry): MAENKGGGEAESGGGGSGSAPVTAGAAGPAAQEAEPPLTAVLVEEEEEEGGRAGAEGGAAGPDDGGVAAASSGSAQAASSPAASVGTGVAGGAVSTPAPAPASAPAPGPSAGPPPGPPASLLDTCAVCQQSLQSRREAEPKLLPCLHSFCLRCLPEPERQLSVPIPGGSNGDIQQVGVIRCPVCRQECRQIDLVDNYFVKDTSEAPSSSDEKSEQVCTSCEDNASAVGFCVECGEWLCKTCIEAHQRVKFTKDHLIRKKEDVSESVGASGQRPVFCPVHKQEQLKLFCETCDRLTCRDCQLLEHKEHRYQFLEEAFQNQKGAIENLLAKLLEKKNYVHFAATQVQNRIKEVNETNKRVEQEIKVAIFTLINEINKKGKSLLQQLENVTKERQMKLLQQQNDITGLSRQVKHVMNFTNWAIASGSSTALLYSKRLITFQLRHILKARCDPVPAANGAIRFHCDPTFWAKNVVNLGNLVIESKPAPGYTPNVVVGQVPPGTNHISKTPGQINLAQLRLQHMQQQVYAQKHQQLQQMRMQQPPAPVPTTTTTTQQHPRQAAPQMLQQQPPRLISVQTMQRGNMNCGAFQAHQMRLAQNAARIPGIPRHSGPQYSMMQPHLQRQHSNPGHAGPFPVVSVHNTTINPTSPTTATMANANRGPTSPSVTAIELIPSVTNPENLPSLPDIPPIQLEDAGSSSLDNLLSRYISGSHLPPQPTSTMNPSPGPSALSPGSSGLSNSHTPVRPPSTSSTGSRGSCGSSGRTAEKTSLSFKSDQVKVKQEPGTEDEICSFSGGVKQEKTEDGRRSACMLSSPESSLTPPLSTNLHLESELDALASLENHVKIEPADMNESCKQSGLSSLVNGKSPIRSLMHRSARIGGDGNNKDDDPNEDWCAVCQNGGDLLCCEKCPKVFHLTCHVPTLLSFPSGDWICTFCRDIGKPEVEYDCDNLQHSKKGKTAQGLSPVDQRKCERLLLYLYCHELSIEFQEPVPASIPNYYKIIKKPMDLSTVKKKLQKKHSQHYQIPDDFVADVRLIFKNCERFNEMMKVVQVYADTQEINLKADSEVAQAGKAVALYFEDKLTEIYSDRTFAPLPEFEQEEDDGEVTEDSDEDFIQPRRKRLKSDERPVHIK

[15] = biological target: SWI/SNF-related matrix-associated actin-dependent regulator of chromatin subfamily A member 2 (Homo sapiens) (UniProt P51531); experiment: Inhibition of GFP-fused N-terminal full length human recombinant Wild type SMARCA2 transfected in human U2OS cells assessed as displacement of SMARCA2 from chromatin by measuring FRAP recovery time at 1 to 5 uM by laser scanning inverted microscopy relative to control; type: cell-based
[16] = biological target: T2, SWI/SNF-related matrix-associated actin-dependent regulator of chromatin subfamily A member 4; experiment: biochemical
Description: Binding affinity to His6-tagged human recombinant SMARCA4 bromodomain expressed in Escherichia coli BL21(DE3)-R3-pRARE2 cells by VP-ITC microcalorimetry

T2 sequence (P51532 whole entry): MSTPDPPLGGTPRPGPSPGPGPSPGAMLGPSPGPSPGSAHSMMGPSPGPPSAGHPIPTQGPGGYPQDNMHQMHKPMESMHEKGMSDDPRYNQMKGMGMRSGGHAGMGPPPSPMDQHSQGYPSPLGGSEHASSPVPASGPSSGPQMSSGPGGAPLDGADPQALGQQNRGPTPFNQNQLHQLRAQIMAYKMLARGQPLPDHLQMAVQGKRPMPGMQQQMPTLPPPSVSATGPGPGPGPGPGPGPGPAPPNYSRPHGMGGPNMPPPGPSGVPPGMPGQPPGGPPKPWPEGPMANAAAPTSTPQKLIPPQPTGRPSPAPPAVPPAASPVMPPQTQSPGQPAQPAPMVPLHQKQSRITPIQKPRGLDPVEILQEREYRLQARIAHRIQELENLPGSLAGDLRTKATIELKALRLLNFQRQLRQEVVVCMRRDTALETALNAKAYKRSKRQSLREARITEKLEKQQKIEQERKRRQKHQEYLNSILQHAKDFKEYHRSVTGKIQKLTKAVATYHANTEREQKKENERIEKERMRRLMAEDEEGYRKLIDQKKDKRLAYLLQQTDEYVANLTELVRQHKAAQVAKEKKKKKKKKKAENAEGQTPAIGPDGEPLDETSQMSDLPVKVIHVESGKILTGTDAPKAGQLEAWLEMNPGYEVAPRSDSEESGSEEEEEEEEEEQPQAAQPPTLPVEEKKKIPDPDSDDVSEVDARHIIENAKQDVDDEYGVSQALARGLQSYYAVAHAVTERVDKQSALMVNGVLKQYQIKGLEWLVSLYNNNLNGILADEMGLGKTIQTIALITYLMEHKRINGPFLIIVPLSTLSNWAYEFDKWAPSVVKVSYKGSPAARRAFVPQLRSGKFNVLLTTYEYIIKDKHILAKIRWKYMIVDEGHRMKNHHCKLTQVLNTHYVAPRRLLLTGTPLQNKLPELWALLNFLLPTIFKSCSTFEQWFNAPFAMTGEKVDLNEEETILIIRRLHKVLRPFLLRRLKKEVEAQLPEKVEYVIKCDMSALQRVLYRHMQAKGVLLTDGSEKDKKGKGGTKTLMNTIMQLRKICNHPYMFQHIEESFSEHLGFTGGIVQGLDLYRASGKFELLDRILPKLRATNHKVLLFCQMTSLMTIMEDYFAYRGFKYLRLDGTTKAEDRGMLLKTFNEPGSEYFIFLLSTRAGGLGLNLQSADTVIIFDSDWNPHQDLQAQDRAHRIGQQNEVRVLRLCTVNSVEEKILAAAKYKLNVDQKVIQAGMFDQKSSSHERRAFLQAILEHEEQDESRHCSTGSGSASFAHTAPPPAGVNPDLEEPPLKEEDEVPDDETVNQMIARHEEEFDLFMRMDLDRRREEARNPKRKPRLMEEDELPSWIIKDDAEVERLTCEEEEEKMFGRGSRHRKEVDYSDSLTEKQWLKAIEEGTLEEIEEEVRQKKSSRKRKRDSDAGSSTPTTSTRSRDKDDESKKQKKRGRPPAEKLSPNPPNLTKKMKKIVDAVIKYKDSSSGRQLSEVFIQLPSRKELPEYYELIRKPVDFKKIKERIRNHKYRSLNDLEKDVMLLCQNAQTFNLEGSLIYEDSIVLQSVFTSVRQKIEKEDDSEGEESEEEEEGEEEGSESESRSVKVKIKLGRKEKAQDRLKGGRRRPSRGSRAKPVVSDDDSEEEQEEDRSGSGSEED
Chain of SWI/SNF-related matrix-associated actin-dependent regulator of chromatin subfamily A member 2 (Homo sapiens) (P51531 whole entry, the tested form may be a part): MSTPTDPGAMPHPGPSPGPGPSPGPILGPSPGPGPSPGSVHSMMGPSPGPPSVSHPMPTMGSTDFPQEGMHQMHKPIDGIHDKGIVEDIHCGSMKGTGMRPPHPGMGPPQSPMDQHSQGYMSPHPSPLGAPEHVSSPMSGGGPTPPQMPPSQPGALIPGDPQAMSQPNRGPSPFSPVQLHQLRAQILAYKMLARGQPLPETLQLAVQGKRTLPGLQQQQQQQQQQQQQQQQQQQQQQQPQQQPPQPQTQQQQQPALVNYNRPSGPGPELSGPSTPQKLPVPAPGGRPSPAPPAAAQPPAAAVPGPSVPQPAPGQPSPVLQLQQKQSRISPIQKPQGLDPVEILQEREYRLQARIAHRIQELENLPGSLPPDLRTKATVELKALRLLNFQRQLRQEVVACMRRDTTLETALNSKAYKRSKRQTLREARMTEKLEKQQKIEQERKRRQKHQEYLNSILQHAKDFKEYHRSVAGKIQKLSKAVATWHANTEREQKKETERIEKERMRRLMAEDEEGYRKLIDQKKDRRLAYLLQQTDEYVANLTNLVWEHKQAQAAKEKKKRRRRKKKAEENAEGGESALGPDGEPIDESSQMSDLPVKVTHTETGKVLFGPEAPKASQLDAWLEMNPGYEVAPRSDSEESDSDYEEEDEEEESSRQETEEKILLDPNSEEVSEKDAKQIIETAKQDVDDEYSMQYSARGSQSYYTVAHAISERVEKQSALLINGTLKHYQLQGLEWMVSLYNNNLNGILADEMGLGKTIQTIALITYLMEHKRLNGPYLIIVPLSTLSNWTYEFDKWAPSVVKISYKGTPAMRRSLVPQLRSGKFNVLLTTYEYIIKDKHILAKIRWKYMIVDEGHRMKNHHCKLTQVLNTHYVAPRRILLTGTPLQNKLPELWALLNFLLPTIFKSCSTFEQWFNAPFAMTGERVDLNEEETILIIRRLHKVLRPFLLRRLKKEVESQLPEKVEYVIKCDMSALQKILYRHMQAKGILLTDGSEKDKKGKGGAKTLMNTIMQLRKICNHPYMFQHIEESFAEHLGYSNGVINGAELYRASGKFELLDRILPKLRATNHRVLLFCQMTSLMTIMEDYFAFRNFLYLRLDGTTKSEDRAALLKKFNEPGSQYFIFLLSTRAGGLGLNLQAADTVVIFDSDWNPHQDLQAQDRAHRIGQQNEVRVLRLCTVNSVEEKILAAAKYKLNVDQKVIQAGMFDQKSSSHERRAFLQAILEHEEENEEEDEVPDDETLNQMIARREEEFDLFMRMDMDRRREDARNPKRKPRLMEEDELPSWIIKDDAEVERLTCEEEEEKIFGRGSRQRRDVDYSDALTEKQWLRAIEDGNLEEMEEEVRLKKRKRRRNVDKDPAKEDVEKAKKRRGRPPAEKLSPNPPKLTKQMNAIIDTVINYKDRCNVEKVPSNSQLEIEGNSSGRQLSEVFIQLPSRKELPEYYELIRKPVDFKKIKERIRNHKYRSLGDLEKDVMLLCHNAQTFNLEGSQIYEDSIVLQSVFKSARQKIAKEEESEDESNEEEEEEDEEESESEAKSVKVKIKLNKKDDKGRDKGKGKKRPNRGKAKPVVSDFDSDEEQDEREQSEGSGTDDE
T1 sequence (Q86U86 whole entry): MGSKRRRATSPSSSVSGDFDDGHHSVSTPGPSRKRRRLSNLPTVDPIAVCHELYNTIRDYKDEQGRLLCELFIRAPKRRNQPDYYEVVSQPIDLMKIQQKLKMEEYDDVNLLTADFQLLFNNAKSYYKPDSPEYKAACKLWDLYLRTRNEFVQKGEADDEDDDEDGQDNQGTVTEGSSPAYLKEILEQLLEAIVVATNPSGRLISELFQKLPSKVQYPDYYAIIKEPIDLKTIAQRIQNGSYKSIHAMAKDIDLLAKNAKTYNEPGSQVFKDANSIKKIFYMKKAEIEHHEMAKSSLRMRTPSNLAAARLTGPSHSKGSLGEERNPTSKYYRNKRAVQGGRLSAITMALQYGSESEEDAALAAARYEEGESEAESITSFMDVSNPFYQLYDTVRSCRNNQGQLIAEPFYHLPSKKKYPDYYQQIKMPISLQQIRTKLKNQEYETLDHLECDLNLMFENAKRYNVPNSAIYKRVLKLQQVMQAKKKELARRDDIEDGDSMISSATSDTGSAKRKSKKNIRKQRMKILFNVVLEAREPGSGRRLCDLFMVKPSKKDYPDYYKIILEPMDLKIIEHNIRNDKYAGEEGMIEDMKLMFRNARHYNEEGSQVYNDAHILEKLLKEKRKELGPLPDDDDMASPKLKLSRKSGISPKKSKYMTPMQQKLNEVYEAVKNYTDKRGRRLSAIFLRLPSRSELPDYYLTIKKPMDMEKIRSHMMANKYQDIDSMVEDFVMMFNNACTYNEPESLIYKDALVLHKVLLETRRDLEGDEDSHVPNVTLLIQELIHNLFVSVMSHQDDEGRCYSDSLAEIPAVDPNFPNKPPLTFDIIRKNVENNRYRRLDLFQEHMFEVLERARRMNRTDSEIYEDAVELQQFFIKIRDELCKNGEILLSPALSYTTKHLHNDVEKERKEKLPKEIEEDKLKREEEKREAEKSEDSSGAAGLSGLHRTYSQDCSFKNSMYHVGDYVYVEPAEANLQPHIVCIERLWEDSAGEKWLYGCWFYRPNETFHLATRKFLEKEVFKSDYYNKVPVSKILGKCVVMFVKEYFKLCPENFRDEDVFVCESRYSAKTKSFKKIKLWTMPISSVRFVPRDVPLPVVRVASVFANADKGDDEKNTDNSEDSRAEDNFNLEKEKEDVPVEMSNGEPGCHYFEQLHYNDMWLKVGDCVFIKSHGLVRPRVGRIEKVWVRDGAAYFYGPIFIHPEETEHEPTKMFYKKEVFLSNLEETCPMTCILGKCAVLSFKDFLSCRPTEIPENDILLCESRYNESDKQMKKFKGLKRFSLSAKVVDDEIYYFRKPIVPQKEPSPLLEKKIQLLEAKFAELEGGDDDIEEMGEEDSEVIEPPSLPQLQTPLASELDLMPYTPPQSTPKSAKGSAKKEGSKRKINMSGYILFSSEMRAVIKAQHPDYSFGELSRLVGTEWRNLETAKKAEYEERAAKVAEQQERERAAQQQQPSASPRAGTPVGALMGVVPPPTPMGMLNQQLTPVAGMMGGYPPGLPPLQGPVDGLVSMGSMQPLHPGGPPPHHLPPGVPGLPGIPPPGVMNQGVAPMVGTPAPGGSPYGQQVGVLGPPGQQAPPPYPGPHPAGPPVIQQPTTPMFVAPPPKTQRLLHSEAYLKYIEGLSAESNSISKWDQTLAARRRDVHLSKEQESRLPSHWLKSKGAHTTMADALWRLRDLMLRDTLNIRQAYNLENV

SMILES | ΔTm [1] [°C] | ΔTm [2] [°C] | ΔTm [3] [°C] | ΔTm [4] [°C] | ΔTm [5] [°C] | ΔTm [6] [°C] | ΔTm [7] [°C] | further results
CCCN(/C=C1\CCn2c1nc(=O)c1ccccc12)CCC | 4.4 |  |  |  |  |  |  | 
O=c1nc2n(c3cccc(Cl)c13)CC/C2=C\N1CCOCC1 | 7.4 | 2.7 | 2.8 | 1.7 | 1.9 | 0.4 | 0.3 | 
CCN1CCN(/C=C2\CCn3c2nc(=O)c2c(Cl)cccc23)CC1 | 9.2 | 5.6 | 4.8 | 4.1 | 4 | 1.4 | 0.9 | K [8]: 7.05 ×10⁶ /M; Kd [8]: 0.142 µM; solubility [9]: soluble
CCN(/C=C1\CCn2c1nc(=O)c1c(Cl)cccc12)CC | 7.3 | 2.8 | 3.6 | 2.5 | 2.9 | 0.2 | 0.6 | 
CC(C)N(/C=C1\CCn2c1nc(=O)c1ccccc12)C(C)C | 1.1 |  |  |  |  |  |  | 
O=c1nc2n(c3cccc(Cl)c13)CC/C2=C\N1CCCCC1 | 9.8 | 5.3 | 6.3 | 4.3 | 4.7 | 0.8 | 0.9 | Kd [8]: 0.127 µM; solubility [9]: soluble
O=c1nc2n(c3cccc(Cl)c13)CC/C2=C\N1CCCC1 | 6.9 | 1.4 | 2.6 | 1.3 | 1.2 | 0.2 | 0.4 | 
CN1CCCN(/C=C2\CCn3c2nc(=O)c2ccccc23)CC1 | 2.5 |  |  |  |  |  |  | IC50 [10]: 22 µM
CN(C)/C=C1\CCn2c1nc(=O)c1c(Br)cccc12 | 6.9 |  |  |  |  |  |  | 
CN(C)/C=C1\CCn2c1nc(=O)c1c(O)cccc12 | 3.4 |  |  |  |  |  |  | 
O=c1nc2n(c3ccccc13)CC/C2=C\N1CCCC1 | 5.8 |  |  |  |  |  |  | IC50 [10]: 9.6 µM; Kd [8]: 2.3 µM
CC(C)(C)OC(=O)N1CCN(/C=C2\CCn3c2nc(=O)c2ccccc23)CC1 | 3.7 |  |  |  |  |  |  | 
CN(C)/C=C1\CCn2c1nc(=O)c1c(F)cccc12 | 1.4 |  |  |  |  |  |  | 
CCN(/C=C1\CCn2c1nc(=O)c1ccccc12)CC | 4.3 |  |  |  |  |  |  | 
O=c1nc2n(c3ccccc13)CC/C2=C\c1ccoc1 | 3.7 |  |  |  |  |  |  | 
CN1CCN(/C=C2\CCn3c2nc(=O)c2ccccc23)CC1 | 3.5 |  |  |  |  |  |  | IC50 [10]: 7.3 µM
CCC(/C=C1\CCn2c1nc(=O)c1c(Cl)cccc12)CC | 10.2 | 2.9 | 3.5 | 2.5 | 7.1 | 3.1 | 2.7 | K [8]: 5.88 ×10⁶ /M
CN1CCN(/C=C2\CCn3c2nc(=O)c2c(Cl)cccc23)CC1 | 10.2 | 5.4 | 6.6 | 4.2 | 4.3 | 1.3 | 1.1 | K [8]: 8.09 ×10⁶ /M; Activity [11]: inactive; Activity [12]: inactive; Activity [13]: inactive; Activity [14]: inactive; inhibition [15]: Active; solubility [9]: soluble; Kd [16]: 0.417 µM
O=c1nc2n(c3ccccc13)CC/C2=C\N1CCOCC1 | 4.7 |  |  |  |  |  |  | 
CCN1CCN(/C=C2\CCn3c2nc(=O)c2ccccc23)CC1 | 4.3 |  |  |  |  |  |  | IC50 [10]: 6.9 µM
CN1CCC(/C=C2\CCn3c2nc(=O)c2c(Cl)cccc23)CC1 | 6 | 1.1 | 1.4 | 1 | 1.4 | 0.7 | 0.8 | 
CN(C)/C=C1\CCn2c1nc(=O)c1c(Cl)cccc12 | 8.4 | 3.6 | 4.4 | 2.7 | 2.2 | 1 | 0.4 | Kd [8]: 0.137 µM
COc1cccc2c1c(=O)nc1n2CC/C1=C\N(C)C | -0.7 |  |  |  |  |  |  | 
O=c1nc2n(c3ccccc13)CC/C2=C\N1CCCCC1 | 5 |  |  |  |  |  |  | IC50 [10]: 6.2 µM; Kd [8]: 1.2 µM
CN(C)/C=C1\CCn2c1nc(=O)c1ccccc12 | 4.2 |  |  |  |  |  |  | IC50 [10]: 11 µM
Cc1cccc2c1c(=O)nc1n2CC/C1=C\N(C)C | 1.4 |  |  |  |  |  |  | 
O=c1nc2n(c3cccc(Cl)c13)CC/C2=C\C1CCCCC1 | 6.6 | 2 | 2.5 | 1.6 | 2.7 | 0.4 | 0.7 | 
O=c1nc2n(c3cccc(Cl)c13)CC/C2=C\C1CCOCC1 | 8.2 | 2.8 | 3.4 | 2.3 | 3.4 | 1.6 | 1.2 | 
